Data on two molecules can be found in article PMC10222328 (Pharmaceuticals, 2023).

One may read the inhibition in vivo as the relative decrease from the control value, in per cent. As a reminder, the IC50 is the midpoint of a concentration-inhibition curve. Read a low IC50 as inhibition by little substance. The inhibition is the share of the control response that was lost under treatment.

Assay [1] has as its system carrageenan-induced rat paw edema. Kind of assay: Carrageenan-induced rat paw edema model. It is filed as in vivo, Wistar albino rats. The following applies: for Rat paw thickness: mean ± SD; for inhibition in vivo at 2.5 mg/kg / inhibition in vivo at 5 mg/kg / inhibition in vivo at 10 mg/kg: Rattus norvegicus, po. As to the method: In vivo assessment of anti-inflammatory activity of compounds 1–7 was conducted in the carrageenan-induced rat paw edema model. Inflammation in all rats was induced by an intraplantar injection of […] of 0.5% carrageenan saline in the left hind paw. Two hundred male Wistar albino rats (180–210 g) were divided into seven experimental (n = 168 rats, 8 rats per subgroup) and two control groups (n = 32 rats, 8 rats per subgroup).
Experimental groups involved rats that received compounds 1–7, and they were divided into three subgroups: rats received compounds 1–7 per os in three doses (2.5 mg/kg, 5 mg/kg, and 10 mg/kg) dissolved in 1% DMSO for 60 min before inducing inflammation.
In order to quantify the anti-inflammatory effect, the thickness of the left paw tissue of each rat was measured at the following time intervals: immediately before inducing inflammation (moment 0) and 1, 2, 3, and 4 h (moments 1, 2, 3, and 4) after inflammation. Tissue thickness was measured in the middle of the rat paw using a digital vernier caliper (Aerospace, Beijing, China).

For assay [2], the system named is COX-1. The settings on record: COX-1 over COX-2; cited from earlier work.
The target in assay [3] is T1, COX-2 (Homo sapiens, UniProt P35354).
T1 construct: purchased Abcam, UK
T1 sequence (P35354 18-604): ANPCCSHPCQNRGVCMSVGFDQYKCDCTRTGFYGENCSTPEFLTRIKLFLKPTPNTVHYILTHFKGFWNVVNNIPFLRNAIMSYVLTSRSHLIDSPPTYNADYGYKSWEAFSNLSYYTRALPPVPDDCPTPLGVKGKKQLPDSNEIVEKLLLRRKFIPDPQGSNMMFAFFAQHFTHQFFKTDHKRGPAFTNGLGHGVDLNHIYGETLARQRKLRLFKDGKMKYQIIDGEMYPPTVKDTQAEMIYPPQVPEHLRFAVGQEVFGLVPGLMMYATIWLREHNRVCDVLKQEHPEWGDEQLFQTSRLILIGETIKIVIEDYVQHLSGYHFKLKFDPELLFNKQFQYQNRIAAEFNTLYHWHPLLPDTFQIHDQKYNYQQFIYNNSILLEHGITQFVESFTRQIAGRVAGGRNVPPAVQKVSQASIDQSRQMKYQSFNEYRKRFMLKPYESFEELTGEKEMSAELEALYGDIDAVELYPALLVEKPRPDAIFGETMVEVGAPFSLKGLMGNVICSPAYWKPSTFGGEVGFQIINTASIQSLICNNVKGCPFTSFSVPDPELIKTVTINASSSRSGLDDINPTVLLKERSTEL
Kind of assay: Fluorometric COX-2 inhibitor screening kit. It is filed as biochemical. As for the experimental part: (§1) COX-2 and 5-LOX inhibitory activities were tested using fluorometric COX-2 and 5-LOX inhibitor screening kits (Abcam, UK). These assays are based on the fluorometric detection of Prostaglandin G2 (a product generated by the COX enzyme) or on the fluorometric detection of intermediate generated by the 5-LOX enzyme. The experiments were conducted according to the manufacturers’ instructions.
(§2) For the determination of COX-2 inhibitory activity, tested compounds were dissolved in DMSO (5 mM stock solutions) and then diluted with the same solvent to obtain test solutions. Test solutions were further diluted 5X with COX assay buffer (2 µL of test solution and 8 µL COX assay buffer). […] Solvent control (SC) was prepared by adding 2 µL DMSO and 8 µL COX assay buffer, while sample (S) and enzyme control (EC) were prepared by adding 10 µL of diluted test solution and COX assay buffer, respectively, into assigned wells. For the determination of 5-LOX inhibitory activity, tested compounds were also dissolved in DMSO to prepare stock solutions with the same concentration (5mM), which were then diluted with the same solvent to obtain test solutions. Subsequently, test solutions were added to corresponding wells (2 µL).

The target of assay [4] is T2, 5-LOX (Homo sapiens, UniProt P09917).
T2 construct: purchased Abcam, UK
T2 sequence (P09917 1-674): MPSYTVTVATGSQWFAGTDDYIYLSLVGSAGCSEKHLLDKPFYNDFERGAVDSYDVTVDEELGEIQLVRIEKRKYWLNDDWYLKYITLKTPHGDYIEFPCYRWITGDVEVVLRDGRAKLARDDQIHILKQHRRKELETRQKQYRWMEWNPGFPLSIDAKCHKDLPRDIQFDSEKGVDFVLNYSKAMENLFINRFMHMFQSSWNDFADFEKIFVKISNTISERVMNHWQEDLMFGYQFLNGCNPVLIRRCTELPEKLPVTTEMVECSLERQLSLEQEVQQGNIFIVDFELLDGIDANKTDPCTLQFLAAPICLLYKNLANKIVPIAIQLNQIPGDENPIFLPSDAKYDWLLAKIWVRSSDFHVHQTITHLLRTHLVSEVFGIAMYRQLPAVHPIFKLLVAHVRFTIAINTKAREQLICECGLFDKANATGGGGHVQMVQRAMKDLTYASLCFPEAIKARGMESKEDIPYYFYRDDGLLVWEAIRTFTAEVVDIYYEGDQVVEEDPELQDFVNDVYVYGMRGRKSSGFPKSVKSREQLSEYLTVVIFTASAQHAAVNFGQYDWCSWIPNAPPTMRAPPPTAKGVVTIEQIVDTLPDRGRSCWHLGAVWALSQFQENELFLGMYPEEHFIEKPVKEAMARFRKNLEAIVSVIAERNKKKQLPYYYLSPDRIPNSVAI
The assay is described as follows: Fluorometric 5-LOX inhibitor screening kit. It is filed as biochemical. The following applies: at 10 µM; mean ± standard error of two measurements; read-out: 5-LOX Percent of Inhibition. As to the method: as §1, §2

Molecules are shown by their SMILES.

Take `COc1ccc2cc([C@H](C)C(=O)O)ccc2c1` [Naproxen, reference compound]: the Rat paw thickness is 6.20 ± 0.10 mm in assay [1] (2.5 mg/kg per os, 1 h after carrageenan); 5.87 ± 0.12 mm in assay [1] (2.5 mg/kg per os, 2 h after carrageenan); 5.60 ± 0.17 mm in assay [1] (2.5 mg/kg per os, 3 h after carrageenan); 5.03 ± 0.25 mm in assay [1] (2.5 mg/kg per os, 4 h after carrageenan); 5.87 ± 0.23 mm in assay [1] (5.0 mg/kg per os, 1 h after carrageenan); 5.37 ± 0.31 mm in assay [1] (5.0 mg/kg per os, 2 h after carrageenan). The Rat paw thickness in assay [1] (5.0 mg/kg per os, 3 h after carrageenan) worked out at 5.07 ± 0.35 mm; in assay [1] (5.0 mg/kg per os, 4 h after carrageenan) it was 4.83 ± 0.21 mm; in assay [1] (10.0 mg/kg per os, 1 h after carrageenan) it was 5.73 ± 0.20 mm; in assay [1] (10.0 mg/kg per os, 2 h after carrageenan) it was 5.40 ± 0.40 mm; in assay [1] (10.0 mg/kg per os, 3 h after carrageenan), 5.20 ± 0.30 mm; in assay [1] (10.0 mg/kg per os, 4 h after carrageenan), 4.80 ± 0.40 mm. Besides, the inhibition in vivo at 2.5 mg/kg was 18.9% in assay [1] (1 h, 2.5 mg/kg per os, 1 h after carrageenan); 24.9% in assay [1] (2 h, 2.5 mg/kg per os, 2 h after carrageenan); 25.1% in assay [1] (3 h, 2.5 mg/kg per os, 3 h after carrageenan); 44.8% in assay [1] (4 h, 2.5 mg/kg per os, 4 h after carrageenan). Further, the inhibition in vivo at 5 mg/kg in assay [1] (1 h, 5.0 mg/kg per os, 1 h after carrageenan) is 27.1%; in assay [1] (2 h, 5.0 mg/kg per os, 2 h after carrageenan), 41.8%; in assay [1] (3 h, 5.0 mg/kg per os, 3 h after carrageenan), 47.1%; in assay [1] (4 h, 5.0 mg/kg per os, 4 h after carrageenan), 49.4%. The inhibition in vivo at 10 mg/kg was 35.4% in assay [1] (1 h, 10.0 mg/kg per os, 1 h after carrageenan); 43.3% in assay [1] (2 h, 10.0 mg/kg per os, 2 h after carrageenan); 45.2% in assay [1] (3 h, 10.0 mg/kg per os, 3 h after carrageenan); 56.3% in assay [1] (4 h, 10.0 mg/kg per os, 4 h after carrageenan). The “Selectivity for COX-1” value in assay [2] was “approximately five”. Further, in assay [3], it took 200 ± 20 nM to reach half-maximal inhibition (IC50). Further, the inhibition at 10 µM in assay [3] (read-out: COX-2 Percent of Inhibition) stood at 72.2 ± 1.4%.

With `CC(c1cc2ccccc2s1)N(O)C(N)=O` (stereo not shown) [Zileuton, reference compound], the inhibition at 10 µM in assay [4] came to 64.85 ± 0.39%.
